Here are results for ten compounds from patent US9417245B2, “Porphyrinic compounds for use in flow cytometry” (North Carolina State University, priority 2005, dated 2016).

Data set [1] is described as follows: Absorption spectroscopy of chlorins (B and Qy bands, log ε, B/Qy ratio). The data set is classed as physicochemical. The note with it: for ΔvQy: Example 2 Table 2, redshift relative to the parent chlorin (ZnC or Zn-M^10).
From the text: (§1) The spectral properties of interest in the chlorins include the position of the long-wavelength Qy transition, the intensity of the Qy transition, and the fluorescence quantum yield of the chlorin. The intensity of the Qy transition can be assessed by the measured molar absorption coefficient; however, comparisons of such values are somewhat unreliable given the experimental variability encountered upon handling small quantities of materials. A better comparison is achieved by examination of the ratio of the intensities of the B and Qy bands for a given compound (B/Qy ratio), which is determined simply by absorption spectroscopy without requiring determination of the molar absorption coefficient. For a wide variety of applications, bathochromic and hyperchromic shifts of the Qy band are desired (i.e., shifted to longer wavelength and intensified), thereby affording strong absorption in the deep-red region.
^1H NMR (400 MHz) and ^13C NMR (75 MHz) spectra were collected at room temperature in CDCl3. Absorption spectra were obtained in toluene at room temperature. Chlorins were analyzed by laser desorption mass spectrometry (LD-MS) in the absence of a matrix. Fast atom bombardment mass spectrometry (FAB-MS) data are reported for the molecule ion or protonated molecule ion. Melting points are uncorrected. All commercially available materials were used as received. All palladium-coupling reactions were carried out using standard Schlenk-line techniques.
as §1, with “increased” for “intensified), thereby affording strong absorption”, “intensity).” for “the deep-red region.”
^1H NMR (400 MHz) and ^13C NMR (75 MHz) spectra were collected at room temperature in CDCl3 unless noted otherwise. Absorption spectra were obtained in toluene at room temperature. Chlorins were analyzed by laser desorption mass spectrometry (LD-MS) in the absence of a matrix. Metalation of free base chlorins was monitored by fluorescence spectroscopy. Melting points are uncorrected. All commercially available materials were used as received.

Data set [2] can be described thus: Fluorescence spectroscopy (emission bands, fluorescence quantum yield). The class given is physicochemical. The note with it: in toluene at room temperature. As for the experimental part: The fluorescence spectra and fluorescence quantum yields reported herein were collected in toluene at room temperature. Measurements of fluorescence quantum yield (Φf) were carried out using chlorin Zn-11 (Φf=0.065) as a standard.^16

For data set [3] the following is noted: literature, cited from earlier work; for Qy band position: FIG. 3, natural pigments, in diethyl ether.

“And” between values parts separate entries of the source, which are not always exact repeats. Identical values can stand only once. Like-named read-outs stand apart in the source and are kept apart here.

As to `Cc1ccc(-c2c3nc(c(-c4c(C)cc(C)cc4C)c4cc5c([nH]4)c(c4nc(cc6ccc2[nH]6)C(C)(C)C4)CC5=O)C=C3)cc1` [Compound 2, 18,18-Dimethyl-10-mesityl-13^1-oxo-5-p-tolylphorbine], in data set [1] (in toluene at room temperature), the Qy band position was 660 nm.
As for `CC(=O)c1cc2[n]3c1=CC1=NC(=Cc4ccc([n]4[Zn]3)C(c3ccc(C)cc3)=C3C=CC(=N3)C=2c2c(C)cc(C)cc2C)C(C)(C)C1` [Zn-1, Zn(II)-13-Acetyl-17,18-dihydro-10-mesityl-18,18-dimethyl-5-p-tolylporphyrin], in data set [1] (in toluene at room temperature), the B band position was determined as 424 nm; the “B/Qy band intensity ratio” value is 2.9; the Qy band position is 632 nm and 635 nm. The “log ε (Qy band)” value in data set [1] (molar absorption coefficient comparison, toluene) was found to be 4.75. Also, the “strong Qy(0,0) / dominant fluorescence band” value in data set [2] is recorded as “around 641 nm”.
In the case of `CC(=O)c1cc2[n]3c1C=C1CC(C)(C)C(=N1)C=c1cc(C#C[Si](C(C)C)(C(C)C)C(C)C)c([n]1[Zn]3)=CC1=NC(=C2c2c(C)cc(C)cc2C)C=C1` [ZnC-E^3M^10A^13, Zn(II)-13-Acetyl-3-[2-(triisopropylsilyl)ethynyl]-17,18-dihydro-10-mesityl-18,18-dimethylporphyrin], in data set [1] (toluene), the “ΔvQy” value was 1160 cm⁻¹. In data set [1] (in toluene at room temperature), the Qy band position was 652 nm.
`Cc1cc(C)c(C2=c3cc(C#C[Si](C(C)C)(C(C)C)C(C)C)c4[n]3[Zn][n]3c(cc(C#C[Si](C(C)C)(C(C)C)C(C)C)c3C=C3C=CC2=N3)C=C2N=C(C=4)CC2(C)C)c(C)c1` [ZnC-E^3M^10E^13, Zn(II)-3,13-Bis[2-(triisopropylsilyl)ethynyl]-17,18-dihydro-10-mesityl-18,18-dimethylporphyrin]: the “ΔvQy” value in data set [1] (toluene) turned out to be 1020 cm⁻¹. Also, the Qy band position in data set [1] (in toluene at room temperature) came out at 646 nm.
Regarding `CC(=O)c1cc2[n]3c1C=C1CC(C)(C)C(=N1)C=c1ccc([n]1[Zn]3)=CC1=NC(=C2c2c(C)cc(C)cc2C)C=C1` [ZnC-M^10A^13, Zn(II)-13-Acetyl-17,18-dihydro-10-mesityl-18,18-dimethylporphyrin], in data set [1] (toluene), the “ΔvQy” value is 680 cm⁻¹. In data set [1] (in toluene at room temperature), the “B/Qy band intensity ratio” value turned out to be 2.2 and the Qy band position was determined as 632 nm.
In the case of `Cc1cc(C)c(C2=c3cc(C#C[Si](C(C)C)(C(C)C)C(C)C)c4[n]3[Zn][n]3c(ccc3C=C3N=C(C=4)CC3(C)C)C=C3C=CC2=N3)c(C)c1` [ZnC-M^10E^13, Zn(II)-13-[2-(Triisopropylsilyl)ethynyl]-17,18-dihydro-10-mesityl-18,18-dimethylporphyrin], the “ΔvQy” value in data set [1] (toluene) was determined as 530 cm⁻¹. In addition, the Qy band position in data set [1] (in toluene at room temperature) came out at 626 nm.
Turning to `C=Cc1cc2[n]3c1C=C1C=CC(=N1)C(c1c(C)cc(C)cc1C)=c1ccc([n]1[Zn]3)=CC1=NC(=C2)C(C)(C)C1` [ZnC-V^3M^10], the “ΔvQy” value in data set [1] (toluene) was 400 cm⁻¹. In addition, in data set [1] (in toluene at room temperature), the Qy band position is given as 621 nm.
With `C=Cc1c(C)c2cc3nc(c4c5[n-]c(cc6nc(cc1[n-]2)C(C)=C6CC)c(C)c5C(=O)[C@@H]4C(=O)OC)[C@@H](CCC(=O)OC/C=C(\C)CCC[C@H](C)CCC[C@H](C)CCCC(C)C)[C@@H]3C.[Mg+2]` [chlorophyll a], in data set [3], the Qy band position is given as 662 nm. Further, in data set [3] (chlorophyll a), the B band position is listed as 430 nm and the “B/Qy band intensity ratio” value is listed as 1.3.
In the case of `C=Cc1c(C)c2cc3nc(c4c5[n-]c(cc6nc(cc1[n-]2)C(C=O)=C6CC)c(C)c5C(=O)[C@@H]4C(=O)OC)[C@@H](CCC(=O)OC/C=C(\C)CCC[C@H](C)CCC[C@H](C)CCCC(C)C)[C@@H]3C.[Mg+2]` [chlorophyll b], the Qy band position in data set [3] was 644 nm and 642 nm.
Consider pheophytin a, for which the Qy band position in data set [3] is on record as 667 nm.
